In PubChem BioAssay AID302 (DTP/NCI, 2004):
Values joined by “and” are separate entries in the source; they are usually repeats but may differ in a detail not shown here. Equal entries are not always repeated. Inconclusive results and toxic doses are left out. Rule for the calls: active = survival T/C of 150% or more; inactive = T/C below 125% in these data.

System: BALB/c mice, Madison 109 lung carcinoma i.m., survival
Assay: NCI In Vivo Anticancer Drug Screen. Data for tumor model Madison 109 Lung Carcinoma (intramuscular) in BALB/CM mice
Conditions: endpoint: median survival time, schedule: Q01DX009 (ip), higher = longer survival
Procedure: The antitumor activity of compounds was measured in mice bearing transplantable tumors. Survival or tumor size were measured and the results are expressed as the measurement made in the treated group (T) divided by the measurement made in the vehicle treated control group (C). The tumor model used in this assay is Madison 109 Lung Carcinoma (intramuscular) in BALB/CM mice

[1] = dose: 5.0 mg/kg/injection, vehicle: saline with Tween-80
[2] = dose: 10.0 mg/kg/injection, vehicle: saline with Tween-80
[3] = dose: 16.0 mg/kg/injection, vehicle: saline
[4] = dose: 0.5 mg/kg/injection, vehicle: saline with Tween-80
[5] = dose: 1.0 mg/kg/injection, vehicle: saline with Tween-80
[6] = dose: 2.0 mg/kg/injection, vehicle: saline with Tween-80
[7] = dose: 8.0 mg/kg/injection, vehicle: saline with Tween-80
[8] = dose: 16.0 mg/kg/injection, vehicle: saline with Tween-80
[9] = dose: 32.0 mg/kg/injection, vehicle: saline with Tween-80
[10] = dose: 64.0 mg/kg/injection, vehicle: saline with Tween-80
[11] = dose: 0.12 mg/kg/injection, vehicle: water
[12] = dose: 0.25 mg/kg/injection, vehicle: water
[13] = dose: 0.5 mg/kg/injection, vehicle: water

Measured: T/C

O=[N+]([O-])c1cccc([N+](=O)[O-])c1Cl
inactive: [1] 101 % of control and 120 % of control | [2] 87 % of control and 99 % of control | dose: 20.0 mg/kg/injection, vehicle: saline with Tween-80 120 % of control [middle of 4 runs] | dose: 40.0 mg/kg/injection, vehicle: saline with Tween-80 114 % of control and 96 % of control and 120 % of control | dose: 80.0 mg/kg/injection, vehicle: saline with Tween-80 90 % of control and 93 % of control and 121 % of control | dose: 160.0 mg/kg/injection, vehicle: saline with Tween-80 104 % of control and 99 % of control and 119 % of control | dose: 320.0 mg/kg/injection, vehicle: saline with Tween-80 87 % of control

NNC(=O)c1ccncc1
inactive: dose: 8.0 mg/kg/injection, vehicle: saline 101 % of control | [3] 111 % of control | dose: 64.0 mg/kg/injection, vehicle: saline 107 % of control | dose: 128.0 mg/kg/injection, vehicle: saline 108 % of control

Nc1ccc(C(=O)O)c(O)c1
inactive: dose: 37.5 mg/kg/injection, vehicle: saline with Tween-80 116 % of control | dose: 75.0 mg/kg/injection, vehicle: saline with Tween-80 116 % of control | dose: 150.0 mg/kg/injection, vehicle: saline with Tween-80 108 % of control | dose: 300.0 mg/kg/injection, vehicle: saline with Tween-80 101 % of control

COc1cccc2c1C(=O)c1c(O)c3c(c(O)c1C2=O)C[C@@](O)(/C(C)=N/NC(=O)c1ccccc1)C[C@@H]3OC1CC(N)C(O)C(C)O1 (stereo not given in full)
inactive: dose: 0.25 mg/kg/injection, vehicle: saline with Tween-80 104 % of control | [4] 111 % of control | [5] 124 % of control | [6] 86 % of control and 118 % of control

COc1cc2c(c(OC)c1OC)-c1ccc(OC)c(=O)cc1[C@@H](NC(C)=O)CC2
inactive: dose: 0.13 mg/kg/injection, vehicle: saline 104 % of control | dose: 0.25 mg/kg/injection, vehicle: saline 104 % of control | dose: 0.5 mg/kg/injection, vehicle: saline 108 % of control | dose: 1.0 mg/kg/injection, vehicle: saline 104 % of control

Nc1ncnc2c1ncn2C1OC(COP(=O)(O)O)C(O)C1O (stereo not given)
inactive: dose: 100.0 mg/kg/injection, vehicle: saline 103 % of control and 107 % of control | dose: 200.0 mg/kg/injection, vehicle: saline 102 % of control and 115 % of control | dose: 400.0 mg/kg/injection, vehicle: saline 112 % of control

O=S(=O)(O)O
inactive: [7] 109 % of control | [8] 108 % of control | [9] 111 % of control | [10] 112 % of control

CNc1nc(N(C)C)nc(N(C)C)n1
inactive: dose: 25.0 mg/kg/injection, vehicle: saline 100 % of control | dose: 50.0 mg/kg/injection, vehicle: saline 100 % of control

CCOC(OCC)C(=O)OCC(=O)[C@]1(O)Cc2c(O)c3c(c(O)c2[C@@H](OC2CC(N)C(O)C(C)O2)C1)C(=O)c1c(OC)cccc1C3=O (stereo not given in full)
inactive: [11] 115 % of control | [12] 124 % of control | [13] 118 % of control

COc1ccc(C[C@H](N)C(=O)NC2C(CO)OC(n3cnc4c(N(C)C)ncnc43)C2O)cc1 (stereo not given in full)
inactive: [7] 101 % of control | [8] 104 % of control | [9] 104 % of control | [10] 121 % of control

COC1=C(N)C(=O)c2nc(-c3nc(C(=O)O)c(C)c(-c4ccc(OC)c(OC)c4O)c3N)ccc2C1=O
inactive: dose: 0.01 mg/kg/injection, vehicle: saline with Tween-80 95 % of control | dose: 0.02 mg/kg/injection, vehicle: saline with Tween-80 95 % of control | dose: 0.04 mg/kg/injection, vehicle: saline with Tween-80 92 % of control | dose: 0.16 mg/kg/injection, vehicle: saline with Tween-80 93 % of control

O=[N+]([O-])c1ccc([N+](=O)[O-])c(Cl)c1
inactive: dose: 2.5 mg/kg/injection, vehicle: saline with Tween-80 101 % of control | [1] 97 % of control | [2] 99 % of control

COc1cccc2c1C(=O)c1c(O)c3c(c(O)c1C2=O)C[C@@](O)(C(C)=O)C[C@@H]3OC1CC(N)C(O)C(C)O1 (stereo not given in full)
inactive: [11] 110 % of control | [12] 102 % of control | [13] 118 % of control | dose: 1.0 mg/kg/injection, vehicle: water 118 % of control

O=C(N[C@H](CO)[C@H](O)c1ccc([N+](=O)[O-])cc1)C(Cl)Cl
inactive: dose: 100.0 mg/kg/injection, vehicle: saline with Tween-80 118 % of control | dose: 200.0 mg/kg/injection, vehicle: saline with Tween-80 107 % of control | dose: 400.0 mg/kg/injection, vehicle: saline with Tween-80 118 % of control

CCN(CC)CCOc1ccc2c(c1)C(=O)c1cc(OCCN(CC)CC)ccc1-2
inactive: [3] 101 % of control | dose: 32.0 mg/kg/injection, vehicle: saline 108 % of control | dose: 62.0 mg/kg/injection, vehicle: saline 103 % of control

CC(=O)OCC1OC(OC(C)=O)C(NC(=O)N(CCCl)N=O)C(OC(C)=O)C1OC(C)=O (stereo not given)
inactive: [4] 100 % of control and 111 % of control | [5] 92 % of control and 102 % of control and 109 % of control | [6] 94 % of control and 112 % of control | dose: 4.0 mg/kg/injection, vehicle: saline with Tween-80 110 % of control and 118 % of control
